Laboratory results published in PMC7721803, “Development of a penem antibiotic against Mycobacteroides abscessus” (Communications Biology, 2020).
Converted amounts (≈) assume the structure as drawn. Like-named read-outs stand apart in the source and are kept apart here.

Assays:
[1] = PK simulation with one-compartmental model (plasma-free drug, fT>MIC); set-up: species or system BALB/c mice
Description: All procedures involving mice were approved by the Animal Care and Use Committee of Johns Hopkins University. T405 was dissolved in PBS. […] Blood was sampled from three mice per group per time point by mandibular vein puncture or cardiac puncture at the following time points: 5, 15, 30, 60, 120, and 240 min post-dose. Plasma was separated in heparin-containing tubes and frozen. […] Concentration–time data were analyzed by standard non-compartmental and compartmental techniques using WinNonlin (version 7.0; Pharsight, Mountain View, CA). […] A plasma free drug fraction of 2% of the total drug concentration was included in the simulations.

M. abscessus = assay: MIC by broth dilution method (Middlebrook 7H9); assay type: cell-based, Mycobacteroides abscessus
M. abscessus ATCC 19977 = assay type: cell-based, Mycobacteroides abscessus
[2] = Mouse plasma protein binding assay (rapid equilibrium dialysis); assay type: in vitro ADME; details: mouse plasma/serum, 4 h
Description: The plasma protein binding assay was performed with a Rapid Equilibrium Dialysis (RED) device (Thermo Scientific, Rockford, IL) according to the manufacturer’s directions and as previously described. […] Aliquots were taken at 30 min and 4 h, diluted with phosphate-buffered saline (PBS), and quenched in 75 µL cold acetonitrile/water (9:1) + 0.1% formic acid mixture containing 5 µM internal standard 1,8-diazabicyclo(5.4.0)undec-7-ene (DBU). The resulting mixture was incubated at −80 °C for 30 min and subjected to centrifugation at 20,000 × g for 20 min.

[3] = Stability in mouse plasma; assay type: in vitro ADME; details: 5 μM, 37 °C, over 4 h
in vivo = assay: in vivo; set-up: species or system BALB/c mice; details: mouse, sc
Description: All procedures involving mice were approved by the Animal Care and Use Committee of Johns Hopkins University. […] Blood was sampled from three mice per group per time point by mandibular vein puncture or cardiac puncture at the following time points: 5, 15, 30, 60, 120, and 240 min post-dose. Plasma was separated in heparin-containing tubes and frozen. […] Concentration–time data were analyzed by standard non-compartmental and compartmental techniques using WinNonlin (version 7.0; Pharsight, Mountain View, CA). A one-compartmental model was used to perform simulations to predict the plasma concentration–time profile after subcutaneous doses of 150, 300, and 450 mg/kg, alone and in combination with probenecid. A plasma free drug fraction of 2% of the total drug concentration was included in the simulations.

## C[C@@H](O)C1C(=O)N2C(C(=O)O)=C(SC3CN(C4=NCCS4)C3)SC12 (stereo in doubt) [T405]
[1]; 25mg/kg alone, 0.083 h
  simulated plasma-free T405 concentration: 3120 ng/mL
[1]; 25mg/kg alone, 0.25 h
  simulated plasma-free T405 concentration: 3273.33 ng/mL
[1]; 25mg/kg alone, 0.5 h
  simulated plasma-free T405 concentration: 2446 ng/mL
[1]; 25mg/kg alone, 1 h
  simulated plasma-free T405 concentration: 1212.67 ng/mL
[1]; 25mg/kg alone, 2 h
  simulated plasma-free T405 concentration: 526 ng/mL
[1]; 25mg/kg alone, 4 h
  simulated plasma-free T405 concentration: 131.67 ng/mL
[1]; 25mg/kg alone, 6 h
  simulated plasma-free T405 concentration: 29.76 ng/mL
[1]; 25mg/kg alone, 8 h
  simulated plasma-free T405 concentration: 6.87 ng/mL
[1]; 25mg/kg alone, 10 h
  simulated plasma-free T405 concentration: 1.58 ng/mL
[1]; 25mg/kg alone, 12 h
  simulated plasma-free T405 concentration: 0.37 ng/mL
[1]; 25mg/kg alone, 16 h
  simulated plasma-free T405 concentration: 0.02 ng/mL
[1]; 25mg/kg alone, 20 h
  simulated plasma-free T405 concentration: 0 ng/mL
[1]; 25mg/kg alone, 24 h
  simulated plasma-free T405 concentration: 0 ng/mL
[1]; 150mg/kg alone, 0.083 h
  simulated plasma-free T405 concentration: 18720 ng/mL
[1]; 150mg/kg alone, 0.25 h
  simulated plasma-free T405 concentration: 19640 ng/mL
[1]; 150mg/kg alone, 0.5 h
  simulated plasma-free T405 concentration: 14676 ng/mL
[1]; 150mg/kg alone, 1 h
  simulated plasma-free T405 concentration: 7276 ng/mL
[1]; 150mg/kg alone, 2 h
  simulated plasma-free T405 concentration: 3156 ng/mL
[1]; 150mg/kg alone, 4 h
  simulated plasma-free T405 concentration: 790 ng/mL
[1]; 150mg/kg alone, 6 h
  simulated plasma-free T405 concentration: 178.58 ng/mL
[1]; 150mg/kg alone, 8 h
  simulated plasma-free T405 concentration: 41.2 ng/mL
[1]; 150mg/kg alone, 10 h
  simulated plasma-free T405 concentration: 9.51 ng/mL
[1]; 150mg/kg alone, 12 h
  simulated plasma-free T405 concentration: 2.19 ng/mL
[1]; 150mg/kg alone, 16 h
  simulated plasma-free T405 concentration: 0.12 ng/mL
[1]; 150mg/kg alone, 20 h
  simulated plasma-free T405 concentration: 0.01 ng/mL
[1]; 150mg/kg alone, 24 h
  simulated plasma-free T405 concentration: 0 ng/mL
[1]; 300mg/kg alone, 0.083 h
  simulated plasma-free T405 concentration: 37440 ng/mL
[1]; 300mg/kg alone, 0.25 h
  simulated plasma-free T405 concentration: 39280 ng/mL
[1]; 300mg/kg alone, 0.5 h
  simulated plasma-free T405 concentration: 29352 ng/mL
[1]; 300mg/kg alone, 1 h
  simulated plasma-free T405 concentration: 14552 ng/mL
[1]; 300mg/kg alone, 2 h
  simulated plasma-free T405 concentration: 6312 ng/mL
[1]; 300mg/kg alone, 4 h
  simulated plasma-free T405 concentration: 1580 ng/mL
[1]; 300mg/kg alone, 6 h
  simulated plasma-free T405 concentration: 357.16 ng/mL
[1]; 300mg/kg alone, 8 h
  simulated plasma-free T405 concentration: 82.4 ng/mL
[1]; 300mg/kg alone, 10 h
  simulated plasma-free T405 concentration: 19.01 ng/mL
[1]; 300mg/kg alone, 12 h
  simulated plasma-free T405 concentration: 4.39 ng/mL
[1]; 300mg/kg alone, 16 h
  simulated plasma-free T405 concentration: 0.23 ng/mL
[1]; 300mg/kg alone, 20 h
  simulated plasma-free T405 concentration: 0.01 ng/mL
[1]; 300mg/kg alone, 24 h
  simulated plasma-free T405 concentration: 0 ng/mL
[1]; 300 mg/kg twice daily, in the presence of avibactam
  predicted free drug time above MIC (fT>MIC): above 40%
[1]; 450mg/kg alone, 0.083 h
  simulated plasma-free T405 concentration: 56160 ng/mL
[1]; 450mg/kg alone, 0.25 h
  simulated plasma-free T405 concentration: 58920 ng/mL
[1]; 450mg/kg alone, 0.5 h
  simulated plasma-free T405 concentration: 44028 ng/mL
[1]; 450mg/kg alone, 1 h
  simulated plasma-free T405 concentration: 21828 ng/mL
[1]; 450mg/kg alone, 2 h
  simulated plasma-free T405 concentration: 9468 ng/mL
[1]; 450mg/kg alone, 4 h
  simulated plasma-free T405 concentration: 2370 ng/mL
[1]; 450mg/kg alone, 6 h
  simulated plasma-free T405 concentration: 535.74 ng/mL
[1]; 450mg/kg alone, 8 h
  simulated plasma-free T405 concentration: 123.6 ng/mL
[1]; 450mg/kg alone, 10 h
  simulated plasma-free T405 concentration: 28.52 ng/mL
[1]; 450mg/kg alone, 12 h
  simulated plasma-free T405 concentration: 6.58 ng/mL
[1]; 450mg/kg alone, 16 h
  simulated plasma-free T405 concentration: 0.35 ng/mL
[1]; 450mg/kg alone, 20 h
  simulated plasma-free T405 concentration: 0.02 ng/mL
[1]; 450mg/kg alone, 24 h
  simulated plasma-free T405 concentration: 0 ng/mL
[1]; 450 mg/kg twice daily with probenecid, in absence of avibactam
  predicted free drug time above MIC (fT>MIC): 54%
[1]; 450 mg/kg twice daily with probenecid, in presence of avibactam
  predicted free drug time above MIC (fT>MIC): 72%
[1]; 450 mg/kg twice daily, free fraction 2%, MIC 0.5 µg/mL (ATCC 19977 in presence of avibactam)
  predicted free drug time above MIC (fT>MIC): 48%
[1]; 450 mg/kg twice daily, free fraction 2%, MIC 2 µg/mL (absence of avibactam)
  predicted free drug time above MIC (fT>MIC): 35%
[1]; 450mg/kg+Prob (with probenecid), 0.083 h
  simulated plasma-free T405 concentration: 48480 ng/mL
[1]; 450mg/kg+Prob (with probenecid), 0.25 h
  simulated plasma-free T405 concentration: 52560 ng/mL
[1]; 450mg/kg+Prob (with probenecid), 0.5 h
  simulated plasma-free T405 concentration: 44640 ng/mL
[1]; 450mg/kg+Prob (with probenecid), 1 h
  simulated plasma-free T405 concentration: 29664 ng/mL
[1]; 450mg/kg+Prob (with probenecid), 2 h
  simulated plasma-free T405 concentration: 16020 ng/mL
[1]; 450mg/kg+Prob (with probenecid), 4 h
  simulated plasma-free T405 concentration: 6636 ng/mL
[1]; 450mg/kg+Prob (with probenecid), 6 h
  simulated plasma-free T405 concentration: 2425.1 ng/mL
[1]; 450mg/kg+Prob (with probenecid), 8 h
  simulated plasma-free T405 concentration: 908.73 ng/mL
[1]; 450mg/kg+Prob (with probenecid), 10 h
  simulated plasma-free T405 concentration: 340.52 ng/mL
[1]; 450mg/kg+Prob (with probenecid), 12 h
  simulated plasma-free T405 concentration: 127.6 ng/mL
[1]; 450mg/kg+Prob (with probenecid), 16 h
  simulated plasma-free T405 concentration: 17.92 ng/mL
[1]; 450mg/kg+Prob (with probenecid), 20 h
  simulated plasma-free T405 concentration: 2.52 ng/mL
[1]; 450mg/kg+Prob (with probenecid), 24 h
  simulated plasma-free T405 concentration: 0.35 ng/mL
M. abscessus; 20 clinical M. abscessus strains
  strains exhibiting MICs of ≤4 µg/mL: 17/20
M. abscessus; ATCC 19977, avibactam 4 µg/mL
  MIC of T405 with avibactam: 0.5 µg/mL
M. abscessus; Mycobacteroides abscessus
  MIC50: 2 µg/mL (≈ 5.16 µM)
  MIC90: 8 µg/mL (≈ 20.6 µM)
M. abscessus; Mycobacteroides abscessus, ATCC19977, reference strain ATCC 19977
  MIC: 2 µg/mL (≈ 5.16 µM)
M. abscessus; Mycobacteroides abscessus, clinical isolate 1N
  MIC: 2 µg/mL (≈ 5.16 µM)
M. abscessus; Mycobacteroides abscessus, clinical isolate 2N
  MIC: 2 µg/mL (≈ 5.16 µM)
M. abscessus; Mycobacteroides abscessus, clinical isolate 3N
  MIC: 2 µg/mL (≈ 5.16 µM)
M. abscessus; Mycobacteroides abscessus, clinical isolate 4N
  MIC: 1 µg/mL (≈ 2.58 µM)
M. abscessus; Mycobacteroides abscessus, clinical isolate 5N
  MIC: 1 µg/mL (≈ 2.58 µM)
M. abscessus; Mycobacteroides abscessus, clinical isolate 8N
  MIC: 4 µg/mL (≈ 10.3 µM)
M. abscessus; Mycobacteroides abscessus, clinical isolate 11N
  MIC: 8 µg/mL (≈ 20.6 µM)
M. abscessus; Mycobacteroides abscessus, clinical isolate 13N
  MIC: 1 µg/mL (≈ 2.58 µM)
M. abscessus; Mycobacteroides abscessus, clinical isolate 14N
  MIC: 8 µg/mL (≈ 20.6 µM)
M. abscessus; Mycobacteroides abscessus, clinical isolate 202
  MIC: 2 µg/mL (≈ 5.16 µM)
M. abscessus; Mycobacteroides abscessus, clinical isolate 203
  MIC: 2 µg/mL (≈ 5.16 µM)
M. abscessus; Mycobacteroides abscessus, clinical isolate 204
  MIC: 8 µg/mL (≈ 20.6 µM)
M. abscessus; Mycobacteroides abscessus, clinical isolate 214
  MIC: 1 µg/mL (≈ 2.58 µM)
M. abscessus; Mycobacteroides abscessus, clinical isolate 215
  MIC: 2 µg/mL (≈ 5.16 µM)
M. abscessus; Mycobacteroides abscessus, clinical isolate JH1801
  MIC: 1 µg/mL (≈ 2.58 µM)
M. abscessus; Mycobacteroides abscessus, clinical isolate JH1802
  MIC: 4 µg/mL (≈ 10.3 µM)
M. abscessus; Mycobacteroides abscessus, clinical isolate JHH2
  MIC: 4 µg/mL (≈ 10.3 µM)
M. abscessus; Mycobacteroides abscessus, clinical isolate JHH4
  MIC: 2 µg/mL (≈ 5.16 µM)
M. abscessus; Mycobacteroides abscessus, clinical isolate JHH9
  MIC: 4 µg/mL (≈ 10.3 µM)
M. abscessus; Mycobacteroides abscessus, clinical isolate JHHKB
  MIC: 2 µg/mL (≈ 5.16 µM)
M. abscessus; avibactam 4 µg/mL, ATCC 19977 and 10 clinical isolates
  Reduction of T405 MIC by addition of avibactam: two-fold (7 strains) or fourfold (2 strains)
M. abscessus ATCC 19977; T405 2 µg/mL with vs without avibactam 256 µg/mL
  Reduction in the frequency of resistance on addition of avibactam: ~3 log
M. abscessus ATCC 19977; T405 at MIC (2 µg/mL) combined with avibactam at its MIC of 256 µg/mL
  Resistance frequency: 5.8 × 10^−9
M. abscessus ATCC 19977; drug alone at its individual MIC (T405 2 µg/mL, imipenem 8 µg/mL)
  Resistance frequency: 2.0 × 10^−6
M. abscessus ATCC 19977; each at its MIC
  Frequency of resistance higher than that for imipenem: approximately 1 log
[2]
  blood plasma binding (bound): 98%
[3]
  stability in mouse plasma: no measurable degradation
In vivo; female, BALB/c
  half-life: 1.26 h
In vivo; female, BALB/c, 25 mg/kg
  AUC(0-t): 205 µg·h/mL
  Cmax: 164 µg/mL
  half-life: 0.82 h
In vivo
  Half-life, effect of co-administration with cilastatin: not affected
